Measured values reported in patent US6992078B2, “Plant extracts and alkaloids having antitussive activity” (The Chinese University of Hong Kong, priority 2002, dated 2006).
“Also recorded” adds a separate entry of the source.

How the values were obtained:
[1] = system: citric acid-induced cough; experiment: Citric acid-induced cough in guinea pigs (antitussive activity); format: in vivo, guinea pig; conditions: for cough episodes (result in words): citric acid-induced cough; for ED50 value (antitussive): comparative study compound A vs codeine (positive control), i.p.; for rank order of antitussive potency: guinea pig citric acid cough model; for % Cough Episode (Composed with Vehicle Control): mean ± SEM
Procedure: In another embodiment, a method is provided for screening for a substance that inhibits coughing activity. For example, a guinea pig is challenged with 0.5 M citric acid. Those producing more than 10 cough episodes during a first citric acid challenge are selected to be sensitive to citric acid induction and are used for further antitussive tests. The number of coughs and the cough latency in the first challenge animal are recorded as the basal level control. After 48 hours of recovery, the sensitive guinea pigs are selected and are randomly divided into different group, and then pretreated with either intraperitoneal or oral administration. For the intraperitoneal administration, the administration can be of a aqueous extract (0.3-3 g/kg), a total alkaloid extract (25-150 mg/kg), an alkaloid, for example compound A (10, 30, 50, and 100 mg/kg), or compounds B, C, D, F, G, H (133 μmol/kg), for 30 min, or of an extract suspected of having antitussive activity. For the oral administration, the administration can be of compound A or E (400 μmol/kg) for 60 min, or of an extract suspected of having antitussive activity. A second citric acid exposure is then conducted. Antitussive activity is evaluated in each treated animal as the reduction of coughs and the increase of cough latency, as compared to the basal level control.
The method previously described by Gallico et al. (1994) was adopted with the following modifications. Unrestrained guinea pigs were placed individually in a hermetically sealed transparent Perspex chamber (25 cm×12 cm×12 cm), and exposed to a nebulized aqueous solution of 0.5 M citric acid for 8 min. An ultrasonic nebulizer was used (OMRON NE-U12, Tokyo, Japan) that produced an aerosol with particles having a mass median diameter of 1˜5 μm. Approximately 0.5 ml of 0.5 M citric acid solution was nebulized per minute. During the exposure, the guinea pigs were continuously monitored by a trained observer. The episodes and latency of coughing in 8 min were detected and counted by the observer. Cough sounds were recorded concurrently and amplified via a microphone placed in the chamber. The sound waves were analyzed by a personal computer by using Cool Edit 2000 software (Syntrillium, Phenix, USA). Therefore, cough counting was performed based on both acoustic data and human observations, and in this manner the reduction or inhibition of coughing (i.e., antitussive activity) was measured.
The guinea pigs were first challenged with 0.5 M citric acid. Those producing more than 10 cough episodes during the first citric acid challenge were selected to be sensitive to citric acid induction and were used for the further antitussive tests. The number of coughs and the cough latency in the first challenge were recorded as the basal level control. After 48 hours of recovery, the sensitive guinea pigs were selected and were randomly divided into different groups with at least four guinea pigs in each group, and then pretreated with intraperitoneal administration of the aqueous extract (0.3-3 g/kg), the total alkaloid extract (25-150 mg/kg), compound A (10, 30, 50, and 100 mg/kg), and compounds B, C, D, F, G, H (133 μmol/kg), for 30 min before the second citric acid exposure. Antitussive activity was evaluated in each treated animal as the reduction of coughs and the increase of cough latency, as compared to the basal level control. Furthermore, the same antitussive test was also performed with oral administration of compounds A and E (400 μmol/kg). In addition, as a positive control, the antitussive activity of codeine (5, 10 and 30 mg/kg, i.p.) was also determined in a parallel study.

[2] = system: citric acid-induced cough; experiment: Effect of receptor antagonists on the antitussive activity of compound A in vivo; parameters: species or system guinea pig; conditions: mean ± SEM
Procedure: Further studies were conducted for the delineation of the mechanisms of antitussive activity produced by the representative Stemona alkaloid, compound A. Similarly, the sensitive animals were selected after the first citric acid challenge and allowed to recover for 24 hours. During the second challenge, animals were treated with a subcutaneous injection of different antagonists at different times prior to intraperitoneal administration of compound A (50 or 100 mg/kg). The antagonists examined included SCH 50911 (GABAB receptor antagonist) with a 40 min pretreatment at a dose of 10 mg/kg, WAY-100635 (5-HT1A receptor antagonist) with a 60 min pretreatment at a dose of 1 mg/kg, and haloperidol (Dopamine, D2 receptor antagonist) with a 45 min pretreatment at a dose of 1 mg/kg. In addition, naloxone (nonselective opioid receptor antagonist) was administered subcutaneously at a dose of 5 mg/kg at 20 min after intraperitoneal administration of compound A (30 and 100 mg/kg). The effects of these antagonists on the antitussive activity of compound A were assessed by comparison of the changes in cough episodes and cough latency between animal groups administrated with compound A alone and concurrent administration of compound A and each antagonist tested. Furthermore, in a parallel study, the same treatment with naloxone was also conducted in the animals pretreated with intraperitoneal administration of codeine (30 mg/kg) for the positive control.

[3] = target: T1, δ1-opioid receptor (Rattus norvegicus, UniProt P33533); experiment: Radiolabeled ligand binding assay, [3H]Deltorphin; conditions: 10 μM, Opioid δ1, Rat forebrain, [3H]Deltrophin
T1 construct: Rat forebrain; tissue Novascreen Biosciences (contract assay); host or cells: rat forebrain
Procedure: (§1) The representative Stemona alkaloid, compound A, was subjected to the following primary receptor binding assays. The standard radiolabeled ligand binding experiments were performed at the concentration of 10 μM in duplicate by Novascreen Biosciences Crop. (7170 Standard Drive, Hanover, Md. 21076, USA). The tested receptors included all currently well-known receptors involved in producing the antitussive activity, for example, [^3H]Deltorphin (δ1-opioid receptor), [^3H]Naltrindole (δ2-opioid receptor), [^3H]DAMGO (μ-opioid receptor), [^3H]U69593 (κ1-opioid receptor), […] (GABAB receptor), [^3H]8-OH-DPAT (5HT1A receptor), and […] (Dopamine D2-receptor). […] Therefore, the results obtained from both in vivo and in vitro studies confirmed that the antitussive activity of all five effective novel Stemona alkaloids and neotuberostemonine are not involved in opiate receptor pathways.

[4] = target: δ2-opioid receptor (Homo sapiens, UniProt P41143); experiment: Radiolabeled ligand binding assay, [3H]Naltrindole; conditions: 10 μM, Opioid δ2, Human recombinant
Procedure: as §1

[5] = target: T2, κ1-opioid receptor (Cavia porcellus, UniProt P41144); experiment: Radiolabeled ligand binding assay, [3H]U-69593; conditions: 10 μM, Opioid κ, Guinea pig cerebellum
T2 construct: Novascreen Biosciences (contract assay)
Procedure: as §1

[6] = target: T3, μ-opioid receptor (Rattus norvegicus, UniProt P33535); experiment: Radiolabeled ligand binding assay, [3H]DAMGO; conditions: 10 μM, Rat forebrain
T3 construct: Novascreen Biosciences (contract assay)
Procedure: as §1

[7] = target: T4, GABAB receptor (Rattus norvegicus, UniProt Q9Z0U4); experiment: Radiolabeled ligand binding assay, [3H]CGP 54626A; conditions: 10 μM, Rat cortex
T4 construct: Novascreen Biosciences (contract assay)
Procedure: as §1

[8] = system: 5HT1A receptor; experiment: Radiolabeled ligand binding assay, [3H]8-OH-DPAT; conditions: 10 μM, Bovine hippocampus
Procedure: as §1

[9] = system: Dopamine D2-receptor; experiment: Radiolabeled ligand binding assay, [3H]Glibenclamide; parameters: species or system Rat; key to Affinity: ± indicates slight but not significant inhibition on ligand binding; conditions: 10 μM, Dopamine D2, Rate striatum
Procedure: as §1

[10] = system: all receptors examined (opioid δ1, δ2, κ, μ, GABAB, 5-HT1A, Dopamine D2); experiment: In vitro receptor binding assays, summary over all receptors examined; conditions: 10 μM, radiolabeled ligand binding
Procedure: as §1

[11] = ip, 133 μmol/kg, 30 min before second citric acid exposure, guinea pig
[12] = po, 400 μmol/kg, 60 min before second citric acid exposure, guinea pig

T4 sequence (Q9Z0U4 17-960 limits assumed): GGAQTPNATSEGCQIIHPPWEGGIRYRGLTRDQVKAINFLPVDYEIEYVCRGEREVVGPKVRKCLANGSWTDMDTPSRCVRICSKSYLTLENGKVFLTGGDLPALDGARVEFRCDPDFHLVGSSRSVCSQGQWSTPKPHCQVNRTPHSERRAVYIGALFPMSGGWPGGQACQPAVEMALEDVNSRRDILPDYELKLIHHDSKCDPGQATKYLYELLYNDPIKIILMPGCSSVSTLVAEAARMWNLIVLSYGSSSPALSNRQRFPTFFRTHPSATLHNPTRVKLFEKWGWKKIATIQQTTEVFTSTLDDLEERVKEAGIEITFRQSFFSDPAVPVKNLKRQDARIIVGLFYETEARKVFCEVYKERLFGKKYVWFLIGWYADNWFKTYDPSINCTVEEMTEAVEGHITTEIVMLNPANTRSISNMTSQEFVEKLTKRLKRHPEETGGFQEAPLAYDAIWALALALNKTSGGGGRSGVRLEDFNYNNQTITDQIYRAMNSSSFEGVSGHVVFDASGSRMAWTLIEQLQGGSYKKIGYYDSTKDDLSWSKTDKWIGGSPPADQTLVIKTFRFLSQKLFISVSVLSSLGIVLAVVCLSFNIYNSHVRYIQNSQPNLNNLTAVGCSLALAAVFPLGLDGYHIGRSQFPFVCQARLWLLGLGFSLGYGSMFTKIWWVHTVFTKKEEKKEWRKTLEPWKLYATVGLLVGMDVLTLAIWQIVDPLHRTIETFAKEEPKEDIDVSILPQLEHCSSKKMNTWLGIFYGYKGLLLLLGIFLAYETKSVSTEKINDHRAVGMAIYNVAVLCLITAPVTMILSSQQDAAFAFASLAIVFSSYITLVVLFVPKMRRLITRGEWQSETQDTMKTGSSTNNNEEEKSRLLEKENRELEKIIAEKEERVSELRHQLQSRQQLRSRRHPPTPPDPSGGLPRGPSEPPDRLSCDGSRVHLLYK
T4 sequence (O88871 41-940 partner): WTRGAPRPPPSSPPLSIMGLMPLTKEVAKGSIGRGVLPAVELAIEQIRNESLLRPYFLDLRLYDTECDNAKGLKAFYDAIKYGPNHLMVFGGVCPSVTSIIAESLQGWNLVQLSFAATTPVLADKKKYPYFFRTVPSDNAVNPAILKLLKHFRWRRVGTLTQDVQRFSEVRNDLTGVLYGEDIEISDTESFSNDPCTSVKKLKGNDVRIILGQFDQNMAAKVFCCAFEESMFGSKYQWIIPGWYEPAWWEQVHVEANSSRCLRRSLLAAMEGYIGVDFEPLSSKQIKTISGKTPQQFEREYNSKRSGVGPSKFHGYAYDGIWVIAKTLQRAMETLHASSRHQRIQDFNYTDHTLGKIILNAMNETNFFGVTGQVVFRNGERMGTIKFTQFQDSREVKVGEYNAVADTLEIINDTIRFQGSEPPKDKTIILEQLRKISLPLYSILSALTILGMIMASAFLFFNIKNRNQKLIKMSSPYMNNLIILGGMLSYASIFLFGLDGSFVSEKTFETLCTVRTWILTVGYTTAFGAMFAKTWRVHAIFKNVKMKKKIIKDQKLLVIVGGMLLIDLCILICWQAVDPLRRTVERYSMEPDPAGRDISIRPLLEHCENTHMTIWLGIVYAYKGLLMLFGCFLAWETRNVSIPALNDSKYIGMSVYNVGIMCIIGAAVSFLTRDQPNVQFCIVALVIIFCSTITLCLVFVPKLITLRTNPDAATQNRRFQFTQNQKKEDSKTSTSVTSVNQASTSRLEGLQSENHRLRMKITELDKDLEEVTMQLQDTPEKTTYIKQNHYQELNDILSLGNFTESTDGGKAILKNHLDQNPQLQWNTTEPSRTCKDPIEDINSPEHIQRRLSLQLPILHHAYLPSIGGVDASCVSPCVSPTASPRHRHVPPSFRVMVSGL
Sequence of δ2-opioid receptor (P41143 whole entry): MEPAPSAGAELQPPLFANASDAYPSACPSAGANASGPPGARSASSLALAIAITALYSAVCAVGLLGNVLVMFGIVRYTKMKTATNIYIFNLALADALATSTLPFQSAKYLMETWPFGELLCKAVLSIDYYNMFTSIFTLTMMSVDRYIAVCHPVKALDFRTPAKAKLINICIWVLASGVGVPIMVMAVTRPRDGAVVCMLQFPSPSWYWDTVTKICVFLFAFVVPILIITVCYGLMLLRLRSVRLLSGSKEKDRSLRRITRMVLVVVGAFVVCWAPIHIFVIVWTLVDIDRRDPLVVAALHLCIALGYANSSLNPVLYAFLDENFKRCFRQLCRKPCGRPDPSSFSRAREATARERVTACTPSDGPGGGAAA
T2 sequence (P41144 whole entry): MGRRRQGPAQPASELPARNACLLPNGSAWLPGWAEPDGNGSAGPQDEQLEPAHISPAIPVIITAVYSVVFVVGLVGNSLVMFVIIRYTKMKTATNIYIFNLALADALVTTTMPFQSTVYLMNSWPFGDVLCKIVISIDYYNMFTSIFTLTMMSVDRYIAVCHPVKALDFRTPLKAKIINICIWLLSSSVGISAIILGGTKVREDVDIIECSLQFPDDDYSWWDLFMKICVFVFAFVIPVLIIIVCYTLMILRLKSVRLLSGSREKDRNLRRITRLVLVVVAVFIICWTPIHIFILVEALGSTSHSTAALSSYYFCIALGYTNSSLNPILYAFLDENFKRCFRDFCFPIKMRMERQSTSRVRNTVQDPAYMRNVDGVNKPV
T1 sequence (P33533 whole entry): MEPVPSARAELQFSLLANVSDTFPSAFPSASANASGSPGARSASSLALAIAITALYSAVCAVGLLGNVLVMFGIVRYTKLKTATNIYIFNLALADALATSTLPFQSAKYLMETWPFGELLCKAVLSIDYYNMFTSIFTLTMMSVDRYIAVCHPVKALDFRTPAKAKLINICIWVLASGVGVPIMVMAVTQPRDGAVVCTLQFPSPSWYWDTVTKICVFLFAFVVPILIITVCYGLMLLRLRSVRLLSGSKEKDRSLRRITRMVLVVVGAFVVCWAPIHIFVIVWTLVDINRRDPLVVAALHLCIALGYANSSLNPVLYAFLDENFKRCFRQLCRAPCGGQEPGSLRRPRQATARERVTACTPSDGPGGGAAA
T3 sequence (P33535 whole entry): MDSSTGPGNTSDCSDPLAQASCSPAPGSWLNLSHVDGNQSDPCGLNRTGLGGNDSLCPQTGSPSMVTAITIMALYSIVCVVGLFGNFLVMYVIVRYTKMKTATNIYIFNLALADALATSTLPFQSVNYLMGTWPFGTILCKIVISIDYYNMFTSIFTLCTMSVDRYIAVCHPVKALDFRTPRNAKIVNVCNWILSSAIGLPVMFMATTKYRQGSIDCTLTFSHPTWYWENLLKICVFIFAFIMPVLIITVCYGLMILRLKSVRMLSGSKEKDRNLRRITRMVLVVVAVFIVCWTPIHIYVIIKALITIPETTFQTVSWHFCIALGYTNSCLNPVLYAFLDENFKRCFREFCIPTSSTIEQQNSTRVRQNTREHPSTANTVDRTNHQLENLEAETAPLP

## CC[C@@H]1[C@H]2CCCCN3[C@H]2[C@@H](C[C@H]3[C@@H]2C[C@H](C)C(=O)O2)[C@H]2[C@@H]1OC(=O)[C@H]2C [Compound A, Neotuberostemonine]
[1]; guinea pig
  cough episodes (result in words): inhibited citric acid-induced cough in a dose-dependent manner; also recorded: significantly inhibited cough episodes in a dose-dependent manner
  ED50 value (antitussive): comparable
[1]; doses of 50 and 100 mg/kg, intraperitoneal, guinea pig
  cough latency: significantly increased
[1]
  rank order of antitussive potency: A=D>C≈F≈H≈B
[1]; [11]
  % Cough Episode (Composed with Vehicle Control): 16.1 ± 7.3%
[1]; [12]
  % Cough Episode (Composed with Vehicle Control): 21.7 ± 8.9%
[2]; with Haloperidol (Dopamine D2 antagonist) 1 mg/kg sc, 45 min pretreatment, compound A ip 50 or 100 mg/kg
  % Antitussive Activity of Compound A: 115.21 ± 7.05%
[2]; with Naloxone (nonselective opioid antagonist) 5 mg/kg sc 20 min after compound A ip (30 and 100 mg/kg)
  % Antitussive Activity of Compound A: 86.51 ± 11.57%
[2]; with SCH 50911 (GABAB antagonist) 10 mg/kg sc, 40 min pretreatment, compound A ip 50 or 100 mg/kg
  % Antitussive Activity of Compound A: 83.25 ± 16.73%
[2]; with WAY-100635 (5-HT1A antagonist) 1 mg/kg sc, 60 min pretreatment, compound A ip 50 or 100 mg/kg
  % Antitussive Activity of Compound A: 100.50 ± 1.67%
[3]; duplicate
  % Inhibition of Ligand Binding (average): 5.95%
[3]
  Affinity: No
[4]
  Affinity: No
[4]; duplicate
  % Inhibition of Ligand Binding (average): 8.32%
[5]
  Affinity: No
[5]; duplicate
  % Inhibition of Ligand Binding (average): 14.40%
[6]
  Affinity: No
[6]; duplicate
  % Inhibition of Ligand Binding (average): 7.37%
[7]
  Affinity: No
[7]; duplicate
  % Inhibition of Ligand Binding (average): 8.06%
[8]
  Affinity: No
[8]; duplicate
  % Inhibition of Ligand Binding (average): −18.42%
[9]
  Affinity: ±
[9]; duplicate
  % Inhibition of Ligand Binding (average): 33.39%
[10]
  affinity to all receptors examined (in words): did not show any affinity

## CC[C@@H]1[C@@H]2CCCCN3[C@@H]2[C@@H](C[C@H]3[C@@H]2C[C@H](C)C(=O)O2)[C@H]2[C@@H]1OC(=O)[C@H]2C [Compound B, Tuberostemonine J]
[1]; guinea pig
  cough episodes (result in words): marked reduction of cough episodes
[1]
  rank order of antitussive potency: A=D>C≈F≈H≈B
[1]; [11]
  % Cough Episode (Composed with Vehicle Control): 76.3 ± 14.7 (ip) %

## CC[C@@H]1[C@H]2CCCCN3[C@@H]2[C@@H](C[C@H]3[C@@H]2C[C@H](C)C(=O)O2)[C@H]2[C@@H]1OC(=O)[C@H]2C [Compound C, Tuberostemonine H]
[1]; guinea pig
  cough episodes (result in words): marked reduction of cough episodes
[1]
  rank order of antitussive potency: A=D>C≈F≈H≈B
[1]; [11]
  % Cough Episode (Composed with Vehicle Control): 50.7 ± 16.6 (ip) %

## CC[C@@H]1[C@H]2CCCCN3CC[C@@H]([C@H]4[C@@H]1OC(=O)[C@H]4C)[C@@H]23 [Compound D, Neostenine]
[1]; guinea pig
  cough episodes (result in words): significantly inhibited cough episodes in a dose-dependent manner
[1]
  rank order of antitussive potency: A=D>C≈F≈H≈B
[1]; [11]
  % Cough Episode (Composed with Vehicle Control): 29.9 ± 8.3 (ip) %

## CC[C@H]1[C@H]2OC(=O)[C@@H](C)[C@H]2c2cc([C@H]3C[C@H](C)C(=O)O3)n3c2[C@H]1CCCC3 [Compound E, Epibisdehydrotuberostemonine J]
[1]; [12]
  % Cough Episode (Composed with Vehicle Control): 136.8 ± 25.6 (po) %

## CC[C@@H]1[C@H]2CCCCN3CC[C@@H]([C@H]4[C@@H]1OC[C@H]4C)[C@@H]23 [Compound H, Neostenine-ether]
[1]; guinea pig
  cough episodes (result in words): marked reduction of cough episodes
[1]
  rank order of antitussive potency: A=D>C≈F≈H≈B
[1]; [11]
  % Cough Episode (Composed with Vehicle Control): 54.4 ± 10.6 (ip) %

## COc1ccc2c3c1O[C@H]1[C@@H](O)C=C[C@H]4[C@@H](C2)N(C)CC[C@@]341 [codeine, reference compound]
[1]; guinea pig
  ED50 value (antitussive): comparable

## Neostenine-acid [Compound G]
[1]; [11]
  % Cough Episode (Composed with Vehicle Control): 104.5 ± 20.4 (ip) %

## Neostenine-diol [Compound F]
[1]; guinea pig
  cough episodes (result in words): marked reduction of cough episodes
[1]
  rank order of antitussive potency: A=D>C≈F≈H≈B
[1]; [11]
  % Cough Episode (Composed with Vehicle Control): 62.2 ± 10.8 (ip) %
